Measured values as given in ChEMBL document CHEMBL1123759, “Nonequilibrium opioid antagonist activity of 6,14-dideoxynaltrexone derivatives” (1987).

Experiments:
Format in all cases: functional
Cavia porcellus [1] = species: Cavia porcellus; assay: Compound was evaluated for irreversible antagonist activity in Guinea pig ileum (GPI) agonist (ethylketazocine) IC50 after antagonist treatment (20 nM) divided by the agonist control IC50
Cavia porcellus [2] = species: Cavia porcellus; assay: Compound was evaluated for irreversible antagonist activity in Guinea pig ileum (GPI) agonist (morphine) IC50 after antagonist treatment (20 nM) divided by the agonist control IC50
Cavia porcellus [3] = species: Cavia porcellus; assay: Compound was evaluated for irreversible antagonist activity in Guinea pig ileum (GPI) agonist (morphine) IC50 after antagonist treatment (200 nM) divided by the agonist control IC50 (Tissue was treated with 200 nM compound rather than 20 nM)
Cavia porcellus [4] = species: Cavia porcellus; assay: Compound was evaluated for irreversible antagonist activity in Guinea pig ileum (GPI)agonist (ethylketazocine) IC50 after antagonist treatment (200 nM) divided by the agonist control IC50
Cavia porcellus [5] = species: Cavia porcellus; assay: Compound was evaluated for agonist activity in Guinea pig ileum (GPI) partial agonist (potency ratio is based on IC10 value for compound and morphine)
Mus musculus [6] = species: Mus musculus; assay: Compound was evaluated for irreversible antagonist activity in Mouse vas deference(MVD) agonist (DADLE) IC50 after antagonist treatment (50 nM) divided by the agonist control IC50
Mus musculus [7] = species: Mus musculus; assay: Compound was evaluated for agonist activity in Mouse vas deferens (MVD)
Mus musculus [8] = species: Mus musculus; assay: Compound was evaluated for irreversible antagonist activity in Mouse vas deference(MVD) agonist (morphine) IC50 after antagonist treatment (50 nM) divided by the agonist control IC50
Cavia porcellus [9] = species: Cavia porcellus; assay: Compound was evaluated for agonist activity in Guinea pig ileum (GPI)
Cavia porcellus [10] = species: Cavia porcellus; assay: Compound was evaluated for irreversible antagonist activity in Guinea pig ileum (GPI) agonist (morphine) IC50 after antagonist treatment (200 nM) divided by the agonist control IC50

Compound | IC50 ratio (Cavia porcellus [1]) | IC50 ratio (Cavia porcellus [2]) | IC50 ratio (Cavia porcellus [3]) | IC50 ratio (Cavia porcellus [4]) | Potency ratio (Cavia porcellus [5]) | IC50 ratio (Mus musculus [6]) | Potency ratio (Mus musculus [7]) | IC50 ratio (Mus musculus [8]) | Potency ratio (Cavia porcellus [9]) | IC50 ratio (Cavia porcellus [10])
Oc1ccc2c3c1O[C@H]1[C@H](N=C=S)CCC4C(C2)N(CC2CC2)CCC341 (some centres undefined) | 1.58 | 4.8 | 70 | 2.29 | 3.1 | 1.96 | 4.5 | 11.5 |  | 
O=C(CI)N[C@@H]1CCC2C3Cc4ccc(O)c5c4C2(CCN3CC2CC2)[C@H]1O5 (some centres undefined) | 1.03 | 3.05 |  |  |  | 2.4 | 25.3 | 15.6 | 6.27 | 
COC(=O)/C=C/C(=O)N[C@@H]1CC[C@@]2(O)[C@H]3Cc4ccc(O)c5c4[C@@]2(CCN3CC2CC2)[C@H]1O5 | 1 | 6 |  |  |  | 1.8 | 4.4 | 3.9 | 5 | 
CN(CCCl)[C@@H]1CCC2C3Cc4ccc(O)c5c4C2(CCN3CC2CC2)[C@H]1O5 (some centres undefined) | 6.25 | 125 |  |  |  | 46.77 | 380 | 51 | 154 | 
COC(=O)/C=C/C(=O)N[C@@H]1CCC2C3Cc4ccc(O)c5c4C2(CCN3CC2CC2)[C@H]1O5 (some centres undefined) | 1.33 | 1.58 |  | 0.5 |  | 2.29 | 18 | 4.12 | 17.62 | 2.77
